Assay results as given in ChEMBL document CHEMBL1139856, “Smallest peptoids with antiproliferative activity on human neoplastic cells” (J Med Chem, 2007).

How the values were obtained:
Jurkat = assay: Cytotoxicity against human Jurkat T cells at <100 uM after 72 hrs; type: cell-based
HL-60 = assay: Cytotoxicity against human HL60 cells at <100 uM after 72 hrs; type: cell-based; details: hl-60, 72 h
HeLa = assay: Antimitotic activity against human HeLa cells after 18 hrs; type: functional, cell-based
[1] = Cytotoxicity against human Jurkat T cells after 72 hrs; type: cell-based
HT-29 = assay: Cytotoxicity against human HT29 cells after 72 hrs; type: cell-based; details: ht-29, 72 h
[2] = Cytotoxicity against human MDA-MB-231 cells after 72 hrs; type: cell-based
[3] = Cytotoxicity against human HL60 cells after 72 hrs; type: cell-based, HL-60
[4] = Cytotoxicity against human A549 cells after 72 hrs; type: cell-based

| IC50 (HeLa) | SMILES | Activity (Jurkat) | Activity (HL-60) | GI50 at 72 h [1] | GI (HT-29) | GI50 at 72 h [2] | GI50 at 72 h [3] | GI50 at 72 h [4] |
| --- | --- | --- | --- | --- | --- | --- | --- | --- |
|  | NC(=O)CN(CC1CCCO1)C(=O)CNCCC(c1ccccc1)c1ccccc1 (stereo unspecified) | Not Active | Not Active |  |  |  |  |  |
|  | NC(=O)CN(CCC(c1ccccc1)c1ccccc1)C(=O)CNCC1CCCO1 (stereo unspecified) | Not Active | Not Active |  |  |  |  |  |
|  | COc1ccc(CCN2CC(=O)N(CCC(c3ccccc3)c3ccccc3)CC2=O)cc1 | Not Active | Not Active |  |  |  |  |  |
|  | O=C1CN(CC2CCCO2)C(=O)CN1CCC(c1ccccc1)c1ccccc1 (stereo unspecified) | Not Active | Not Active |  |  |  |  |  |
| 0.025 µM | COc1ccc(CCN(CC(=O)NCCC(c2ccccc2)c2ccccc2)C(=O)CNCCC(c2ccccc2)c2ccccc2)cc1 |  |  | 3.75 µM | 1.04 µM | 1.02 µM | 2.94 µM | 1.02 µM |
|  | O=C(CN(CCC(c1ccccc1)c1ccccc1)C(=O)CNCC1CCCO1)NCCC(c1ccccc1)c1ccccc1 (stereo unspecified) |  |  | 5.83 µM | 0.94 µM | 1.06 µM | 23 µM | 1.06 µM |
|  | COc1ccc(CCN(CC(=O)N(CCC(c2ccccc2)c2ccccc2)CC(N)=O)C(=O)CNCCC(c2ccccc2)c2ccccc2)cc1 |  |  | 6.68 µM | 1.41 µM | 1.32 µM | 21.8 µM | 1.41 µM |
| 0.035 µM | O=C(CNCCC(c1ccccc1)c1ccccc1)NCCC(c1ccccc1)c1ccccc1 |  |  | 10.2 µM | 3.03 µM | 3.46 µM | 12.6 µM | 3.46 µM |
|  | COc1ccc(CCN(CC(N)=O)C(=O)CNCCC(c2ccccc2)c2ccccc2)cc1 |  |  | 33.9 µM | 9.14 µM | 19.1 µM | 31.1 µM |  |
| 0.154 µM | NC(=O)CN(CCC(c1ccccc1)c1ccccc1)C(=O)CNCCC(c1ccccc1)c1ccccc1 |  |  | 10.5 µM | 1.64 µM | 3.08 µM | 13.2 µM | 3.08 µM |
|  | COc1ccc(CCNCC(=O)N(CCC(c2ccccc2)c2ccccc2)CC(N)=O)cc1 |  |  | 27.3 µM | 9.14 µM | 9.36 µM | 29.1 µM | 9.36 µM |
| 0.994 µM | COc1ccc(CCNCC(=O)NCCC(c2ccccc2)c2ccccc2)cc1 |  |  | 18 µM | 1.89 µM | 2.73 µM | 10.6 µM | 3.73 µM |
|  | NC(=O)CN(CCC(c1ccccc1)c1ccccc1)C(=O)CN(CCC(c1ccccc1)c1ccccc1)C(=O)CNCC1CCCO1 (stereo unspecified) [TRIMER I] |  |  | 21.3 µM | 2.27 µM | 2.72 µM | 3.55 µM | 2.57 µM |
